Results on 15 compounds are retold here after patent US20250339399A1, “SUPRAMOLECULAR SELF-ASSEMBLY SYSTEM” (Beijing Creatron Institute of Pharmaceutical Research Co., …, priority 2022, published 2025).

For data set [1] the following is noted: human use, cited from earlier work.
A short description of data set [2]: Guest molecule concentration after incubation in initial medium without polymer (Comparative Example 1). The data set is classed as physicochemical. The settings on record: 37° C., pH 6.8 phosphate buffer. In a few lines:
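Dissolved guest content measured by HPLC of centrifuged supernatants (37° C., 13000 rpm, 5 min) sampled at 0.5 h, 3 h and 6 h. Incubation was polymer-free at 37° C.±0.5° C. in buffers of pH 2.0-7.4; nominal loading was set by maximum clinical dose.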

Data set [3] is described as follows: Binary supramolecular self-assembly systems of polymer and target: guest concentration over incubation time (Comparative Example 2). The class given is physicochemical. To be noted: for Concentration of guest molecule in solution / Times that of the initial medium: 6 h. As to the method:
Experiments were conducted according to the steps in Comparative Example 1, and quantitative analysis was carried out using the analytical method for each target to investigate the regulation ability […] stacking.

The conditions of data set [4]: cited from earlier work; for Sol: natural flavonoids (chalcone, dihydrochalcone class), Table 1 basic information.
The conditions of data set [5]: cited from earlier work.

Read-outs that look alike come from different tables or passages of the source.

As for `C[C@@H]1O[C@@H](O[C@H]2[C@H](Oc3cc(O)c(C(=O)CCc4ccc(O)cc4)c(O)c3)O[C@H](CO)[C@@H](O)[C@@H]2O)[C@H](O)[C@H](O)[C@H]1O` [compound 312, Naringin dihydrochalcone], the “Acceptable daily intake (ADI)” value in data set [1] is 41 mg/person/ day mg/person/day.

Regarding `C=C1C[C@@]23CC[C@H]4[C@@](C)(CCC[C@@]4(C)C(=O)O[C@@H]4O[C@H](CO)[C@@H](O)[C@H](O)[C@H]4O)[C@@H]2CC[C@]1(O[C@@H]1O[C@H](CO)[C@@H](O)[C@H](O[C@@H]2O[C@H](CO)[C@@H](O)[C@H](O)[C@H]2O)[C@H]1O[C@@H]1O[C@@H](C)[C@H](O)[C@@H](O)[C@H]1O)C3` [compound 308, Rebaudioside C], in data set [1] (bw: body weight), the “Acceptable daily intake (ADI)” value is given as 6 mg/kg bw/day.

Turning to `O=C(OC[C@H]1O[C@@H](OC(=O)c2cc(O)c(O)c(OC(=O)c3cc(O)c(O)c(O)c3)c2)[C@H](OC(=O)c2cc(O)c(O)c(OC(=O)c3cc(O)c(O)c(O)c3)c2)[C@@H](OC(=O)c2cc(O)c(O)c(OC(=O)c3cc(O)c(O)c(O)c3)c2)[C@@H]1OC(=O)c1cc(O)c(O)c(OC(=O)c2cc(O)c(O)c(O)c2)c1)c1cc(O)c(O)c(OC(=O)c2cc(O)c(O)c(O)c2)c1` [compound 316, Tannic acid], the “Acceptable daily intake (ADI)” value in data set [1] (bw: body weight) is listed as 15 mg/kg bw/day.

For the compound `C=C1C[C@@]23CC[C@H]4[C@@](C)(CCC[C@@]4(C)C(=O)O[C@@H]4O[C@H](CO)[C@@H](O)[C@H](O[C@@H]5O[C@H](CO)[C@@H](O)[C@H](O)[C@H]5O)[C@H]4O[C@@H]4O[C@H](CO)[C@@H](O)[C@H](O)[C@H]4O)[C@@H]2CC[C@]1(O[C@@H]1O[C@H](CO)[C@@H](O)[C@H](O[C@@H]2O[C@H](CO)[C@@H](O)[C@H](O)[C@H]2O)[C@H]1OC1O[C@H](CO)[C@@H](O)[C@H](O)[C@H]1O)C3` (some centres unmarked) [compound 321, Rebaudioside M], the “Acceptable daily intake (ADI)” value in data set [1] (bw: body weight) is 4 mg/kg bw/day.

Turning to Myricitrin [compound 306], in data set [1] (bw: body weight), the “Acceptable daily intake (ADI)” value was 14 mg/kg bw/day.

Turning to “Neohesperidin dihydrochalcone [compound 310]”, the “Acceptable daily intake (ADI)” value in data set [1] (bw: body weight) is 3-5 mg/kg bw/day.

On to `C=C1C[C@@]23CC[C@H]4[C@@](C)(CCC[C@@]4(C)C(=O)O[C@@H]4O[C@H](CO)[C@@H](O)[C@H](O)[C@H]4O)[C@@H]2CC[C@]1(O[C@@H]1O[C@H](CO)[C@@H](O)[C@H](O)[C@H]1O[C@@H]1O[C@H](CO)[C@@H](O)[C@H](O)[C@H]1O)C3` [compound 315, Stevioside], for which the “Acceptable daily intake (ADI)” value in data set [1] (bw: body weight) is given as 4 mg/kg bw/day.

With `O=C1C[C@@H](c2ccc(O)cc2)Oc2cc(O)cc(O)c21` [Naringenin], the “Concentration of guest molecule measured after different incubated time” value in data set [2] (0.5 h) is 169.9 µg/mL; in data set [2] (3 h) it was 126.7 µg/mL; in data set [2] (6 h), 129.1 µg/mL. The “Concentration of the target in the solution measured after different incubation time” value (“Concentration … after different incubation time” below) in data set [3] (binary system with 0.5% polymer 101, incubation 0.5 h) was found to be 412.1 µg/mL; in data set [3] (binary system with 0.5% polymer 101, incubation 3 h), 214.9 µg/mL; in data set [3] (binary system with 0.5% polymer 101, incubation 6 h) it was 126.4 µg/mL; in data set [3] (binary system with 0.5% polymer 102, incubation 0.5 h), 456.4 µg/mL; in data set [3] (binary system with 0.5% polymer 102, incubation 3 h), 389.1 µg/mL; in data set [3] (binary system with 0.5% polymer 102, incubation 6 h), 383.3 µg/mL. In addition, the “Concentration … after different incubation time” value in data set [3] (binary system with 0.5% polymer 103, incubation 0.5 h) is 230.7 µg/mL; in data set [3] (binary system with 0.5% polymer 103, incubation 3 h), 231.0 µg/mL; in data set [3] (binary system with 0.5% polymer 103, incubation 6 h), 233.5 µg/mL; in data set [3] (binary system with 0.5% polymer 106, incubation 0.5 h) it was 469.5 µg/mL; in data set [3] (binary system with 0.5% polymer 106, incubation 3 h) it was 462.5 µg/mL; in data set [3] (binary system with 0.5% polymer 106, incubation 6 h) it was 478.8 µg/mL. Besides, the “Concentration … after different incubation time” value in data set [3] (binary system with 0.5% polymer 107, incubation 0.5 h) worked out at 127.5 µg/mL; in data set [3] (binary system with 0.5% polymer 107, incubation 3 h), 130.9 µg/mL; in data set [3] (binary system with 0.5% polymer 107, incubation 6 h) it was 139.1 µg/mL; in data set [3] (binary system with 0.5% polymer 110, incubation 0.5 h), 112.7 µg/mL; in data set [3] (binary system with 0.5% polymer 110, incubation 3 h) it was 79.0 µg/mL; in data set [3] (binary system with 0.5% polymer 110, incubation 6 h) it was 77.6 µg/mL. Besides, the “Concentration of guest molecule in solution” value in data set [3] (binary: 0.5% 102H) came out at 383.3 µg/mL; in data set [3] (binary: 0.5% 103E5), 233.5 µg/mL. In addition, the “Times that of the initial medium” value in data set [3] (binary: 0.5% 102H) is listed as 3.0 times; in data set [3] (binary: 0.5% 103E5) it was 1.8 times. Besides, the “solubility value given in Table 1 (basic information of natural flavonoids)” value in data set [4] (parent flavonoid of the class, value follows the class name) was “Naringenin (CAS 480-41) derivatives, EUF-0.58 mg/ml”. For the same compound, the LogP entry in data set [5] is given as “LogP 2.71”.

Turning to `O=C(O[C@@H]1Cc2c(O)cc(O)cc2O[C@@H]1c1cc(O)c(O)c(O)c1)c1cc(O)c(O)c(O)c1` [compound 303, (−)−Epigallocatechin 3-gallate], the “Acceptable daily intake (ADI)” value in data set [1] is 135-270 mg/person/ day mg/person/day.

As for `COc1ccc([C@@H]2CC(=O)c3c(O)cc(O[C@@H]4O[C@H](CO)[C@@H](O)[C@H](O)[C@H]4O[C@@H]4O[C@@H](C)[C@H](O)[C@@H](O)[C@H]4O)cc3O2)cc1O` [compound 318, Neohesperidin], the “Acceptable daily intake (ADI)” value in data set [1] (bw: body weight) is 5 mg/kg bw/day.

With `C[C@H](CC[C@@H](O[C@@H]1O[C@H](CO[C@@H]2O[C@H](CO)[C@@H](O)[C@H](O)[C@H]2O)[C@@H](O)[C@H](O)[C@H]1O[C@@H]1O[C@H](CO)[C@@H](O)[C@H](O)[C@H]1O)C(C)(C)O)[C@H]1CC[C@@]2(C)[C@@H]3CC=C4[C@@H](CC[C@H](O[C@@H]5O[C@H](CO[C@@H]6O[C@H](CO)[C@@H](O)[C@H](O)[C@H]6O)[C@@H](O)[C@H](O)[C@H]5O)C4(C)C)[C@]3(C)[C@H](O)C[C@]12C` [compound 319, Mogroside V], the “Acceptable daily intake (ADI)” value in data set [1] (bw: body weight) is reported as 0-2.5 mg/kg bw/day.

On to `C=C1C[C@@]23CC[C@H]4[C@@](C)(CCC[C@@]4(C)C(=O)O[C@@H]4O[C@H](CO)[C@@H](O)[C@H](O)[C@H]4O)[C@@H]2CC[C@]1(O[C@@H]1O[C@H](CO)[C@@H](O)[C@H](O)[C@H]1O[C@@H]1O[C@H](CO)[C@@H](O)[C@H](O)[C@H]1O)C3` [Stevioside], for which the Intrinsic solubility result in data set [4] is “Intrinsic solubility: 6.7 mg/ml”.

On to `C[C@@H]1O[C@@H](O[C@H]2[C@H](Oc3cc(O)c(C(=O)CCc4ccc(O)c(O)c4)c(O)c3)O[C@H](CO)[C@@H](O)[C@@H]2O)[C@H](O)[C@H](O)[C@H]1O` [Neoeriocitrin dihydrochalcone, 1-[4-[(2S,3R,4S,5S,6R)-4,5-dihydroxy-6-(hydroxymethyl)-3-[(2S,3R,4R,5R,6S)-3,4,5-trihydroxy-6-methoxy-2-yl]oxy-2-yl]oxy-2,6-dihydroxyphenyl]-3-(3,4-dihydroxyphenyl)propan-1-one], for which the Sol in data set [4] was 21.89 mg/mL.

`C=C1C[C@@]23CC[C@H]4[C@@](C)(CCC[C@@]4(C)C(=O)O[C@@H]4O[C@H](CO)[C@@H](O)[C@H](O)[C@H]4O)[C@@H]2CC[C@]1(O[C@@H]1O[C@H](CO)[C@@H](O)[C@H](O)[C@H]1O)C3` [Rubusoside, rubusoside]: the Intrinsic solubility entry in data set [4] was “Intrinsic solubility: 0.39 mg/ml”.

On to `O=C(CCc1ccc(O)cc1)c1c(O)cc(O[C@@H]2O[C@H](CO)[C@@H](O)[C@H](O)[C@H]2O)cc1O` [Trilobatin, trilobatin], for which the Sol in data set [4] was 3.89 mg/mL.
